Patent publication US8101605B2, “SHIP1 modulators and methods related thereto” (Aquinox Pharmaceuticals Inc., priority 2009, dated 2012)

Biological target: T1, His-hSHIP1 enzyme (Homo sapiens, UniProt Q92835)
T1 sequence (Q92835 1-1189): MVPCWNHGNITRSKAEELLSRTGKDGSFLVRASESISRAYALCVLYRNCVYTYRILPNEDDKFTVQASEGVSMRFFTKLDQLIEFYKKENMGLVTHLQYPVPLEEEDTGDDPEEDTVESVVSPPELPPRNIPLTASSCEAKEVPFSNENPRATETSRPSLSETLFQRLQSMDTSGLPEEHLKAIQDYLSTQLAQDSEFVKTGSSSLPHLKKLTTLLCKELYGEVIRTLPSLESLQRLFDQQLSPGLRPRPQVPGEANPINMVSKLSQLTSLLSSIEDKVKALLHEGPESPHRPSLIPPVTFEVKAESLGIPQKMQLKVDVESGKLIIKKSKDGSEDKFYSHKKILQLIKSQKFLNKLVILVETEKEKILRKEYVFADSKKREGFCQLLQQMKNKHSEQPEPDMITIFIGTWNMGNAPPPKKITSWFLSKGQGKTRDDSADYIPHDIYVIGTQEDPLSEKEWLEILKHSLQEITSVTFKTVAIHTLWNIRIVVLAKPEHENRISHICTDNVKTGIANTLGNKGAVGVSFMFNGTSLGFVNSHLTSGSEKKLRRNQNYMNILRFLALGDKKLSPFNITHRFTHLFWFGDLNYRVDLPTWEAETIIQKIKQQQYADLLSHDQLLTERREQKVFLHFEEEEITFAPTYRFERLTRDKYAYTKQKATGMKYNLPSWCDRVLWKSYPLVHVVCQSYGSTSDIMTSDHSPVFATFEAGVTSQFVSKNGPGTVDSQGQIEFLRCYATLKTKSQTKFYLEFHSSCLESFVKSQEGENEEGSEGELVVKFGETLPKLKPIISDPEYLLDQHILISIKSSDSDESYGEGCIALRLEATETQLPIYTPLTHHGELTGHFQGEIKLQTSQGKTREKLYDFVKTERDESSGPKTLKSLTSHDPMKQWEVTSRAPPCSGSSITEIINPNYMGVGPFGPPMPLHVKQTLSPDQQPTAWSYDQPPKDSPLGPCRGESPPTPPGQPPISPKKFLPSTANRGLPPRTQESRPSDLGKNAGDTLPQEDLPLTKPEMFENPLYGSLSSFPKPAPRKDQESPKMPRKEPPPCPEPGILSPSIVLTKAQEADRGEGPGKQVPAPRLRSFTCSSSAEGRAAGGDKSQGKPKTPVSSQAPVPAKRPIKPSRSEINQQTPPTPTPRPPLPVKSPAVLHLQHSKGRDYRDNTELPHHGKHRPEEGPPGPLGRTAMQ
Experiment: His-hSHIP1 phosphatase activity assay (IP4 substrate, Biomol Green)
Type: biochemical
Conditions: percentage increase relative to background; concentrations ≦300 μM
Method: Test compounds were dissolved in 95% ethanol to form stock solutions. Before screening, the stock solutions were diluted with Phosphatase Assay Buffer (20 mM Tris-HCL, 10 mM MgCl2 pH 7.5, 0.02% Tween 20) to form working assay solutions that contained 10% ethanol. The assay was carried out on 96-well microtiter plates using a modified procedure of that reported by Ong et al., Blood 110, 1942-1949, 2007 and Yang et al., Org Lett 7, 1073-1076, 2005, both of which references are incorporated herein by reference in their entirety.
Each reaction contained 5 μL of His-hSHIP1 enzyme (15-20 ng), 10 μL of the substrate, 1,3,4,5-inositol tetrakisphosphate (IP4; 50 μM final), 5 μL of Phosphatase Assay Buffer, and 5 μL of test compound at various concentrations in 10% ethanol (0-300 μM final). Control blanks were also prepared by replacing His-hSHIP1 enzyme, IP4, or test compounds with Phosphatase Assay Buffer. After adding the reaction components in a 96-well microtiter plate on ice, the reaction was mixed by briefly shaking the plate vigorously. The reaction was then incubated at 37° C. for 15 min with gentle shaking followed by addition of 100 μL of Biomol Green Reagent (BIOMOL, PA, USA) to terminate the reaction. The free phosphate released from IP4 by His-hSHIP1 bound to the Biomol Green Reagent, turning the solution green in colour. After incubating the mixture for 20 min at room temperature for colour development, the absorbance was read with a SpectraMax Plus 96-well plate reader (Molecular Devices, Sunnyvale, Calif., USA) at a wavelength of 650 nm.
Percent (%) activation in Table 2 is expressed as a percentage increase relative to background. Scoring is expressed as follows: + (<50%); ++ (≧50% but <65%); +++ (≧65%).

| Compound | Scoring: percent (%) activation of His-hSHIP1 enzyme |
| --- | --- |
| COc1cc(C)c2c(c1)OC[C@@H]1[C@@]3(C)CCCC(C)(C)[C@@H]3CC[C@@]21C [Compound No. 5, (1R,10R,11S,16S)-5-methoxy-1,3,11,15,15-pentamethyl-8-oxatetracyclo[8.8.0.0^2,7.0^11,16]octadeca-2,4,6-triene] | ++ (≧50% but <65%) |
| COc1cc(C)cc2c1[C@]1(C)CC[C@H]3C(C)(C)CCC[C@]3(C)[C@H]1CS2 [Compound No. 14, (1R,10R,11S,16S)-3-methoxy-1,5,11,15,15-pentamethyl-8-thiatetracyclo[8.8.0.0^2,7.0^11,16]octadeca-2,4,6-triene] | + (<50%) |
| Cc1cc(O)c2c(c1)SC[C@@H]1[C@@]3(C)CCCC(C)(C)[C@@H]3CC[C@@]21C [Compound No. 15, (1R,10R,11S,16S)-1,5,11,15,15-pentamethyl-8-thiatetracyclo[8.8.0.0^2,7.0^11,16]octadeca-2,4,6-trien-3-ol] | +++ (≧65%) |
| COc1cc(OC)c2c(c1)S(=O)(=O)C[C@@H]1[C@@]3(C)CCCC(C)(C)[C@@H]3CC[C@@]21C [Compound No. 23, (1R,10R,11S,16S)-3,5-dimethoxy-1,11,15,15-tetramethyl-8-thiatetracyclo[8.8.0.0^2,7.0^11,16]octadeca-2,4,6-triene-8,8-dione] | +++ (≧65%) |
| COc1cc(O)cc2c1[C@]1(C)CC[C@H]3C(C)(C)CCC[C@]3(C)[C@H]1CS2 [Compound No. 25, (1R,10R,11S,16S)-3-methoxy-1,11,15,15-tetramethyl-8-thiatetracyclo[8.8.0.0^2,7.0^11,16]octadeca-2,4,6-trien-5-ol] | ++ (≧50% but <65%) |
| CC1(C)CCC[C@]2(C)[C@H]3CSc4cc(O)cc(O)c4[C@]3(C)CC[C@@H]12 [Compound No. 26, (1R,10R,11S,16S)-1,11,15,15-tetramethyl-8-thiatetracyclo[8.8.0.0^2,7.0^11,16]octadeca-2,4,6-triene-3,5-diol] | + (<50%) |
| CC1(C)CCC[C@]2(C)[C@H]3C[S+]([O-])c4cc(O)cc(O)c4[C@]3(C)CC[C@@H]12 (stereo partly drawn) [Compound No. 27, (1R,10R,11S,16S)-3,5-dihydroxy-1,11,15,15-tetramethyl-8-thiatetracyclo[8.8.0.0^2,7.0^11,16]octadeca-2,4,6-trien-8-one] | ++ (≧50% but <65%) |
| COc1cc(O)c2c(c1)SC[C@@H]1[C@@]3(C)CCCC(C)(C)[C@@H]3CC[C@@]21C [Compound No. 29, (1R,10R,11S,16S)-5-methoxy-1,11,15,15-tetramethyl-8-thiatetracyclo[8.8.0.0^2,7.0^11,16]octadeca-2,4,6-trien-3-ol] | ++ (≧50% but <65%) |
| COc1cc(O)c2c(c1)OC[C@@H]1[C@@]3(C)CCCC(C)(C)[C@@H]3CC[C@@]21C [Compound No. 39, (1R,10R,11S,16S)-5-methoxy-1,11,15,15-tetramethyl-8-oxatetracyclo[8.8.0.0^2,7.0^11,16]octadeca-2,4,6-trien-3-ol] | ++ (≧50% but <65%) |
| COc1cc(O)c2c(c1)[C@]1(C)CC[C@H]3C(C)(C)CCC[C@]3(C)[C@H]1CO2 [Compound No. 44, (1R,10R,11S,16S)-4-methoxy-1,11,15,15-tetramethyl-8-oxatetracyclo[8.8.0.0^2,7.0^11,16]octadeca-2,4,6-trien-6-ol] | ++ (≧50% but <65%) |

Now from value to molecule:

| Scoring: percent (%) activation of His-hSHIP1 enzyme | Compound |
| --- | --- |
| +++ (≧65%) | Cc1cc(O)c2c(c1)S(=O)(=O)C[C@@H]1[C@@]3(C)CCCC(C)(C)[C@@H]3CC[C@@]21C [Compound No. 16, (1R,10R,11S,16S)-3-hydroxy-1,5,11,15,15-pentamethyl-8-thiatetracyclo[8.8.0.0^2,7.0^11,16]octadeca-2,4,6-triene-8,8-dione] |
| ++ (≧50% but <65%) | CC1(C)CCC[C@]2(C)[C@H]3CS(=O)(=O)c4cc(O)cc(C(=O)O)c4[C@]3(C)CC[C@@H]12 [compound 65, (1R,10R,11S,16S)-5-hydroxy-1,11,15,15-tetramethyl-8,8-dioxo-8λ^6-thiatetracyclo[8.8.0.0^2,7.0^11,16]octadeca-2,4,6-triene-3-carboxylic acid] |
| + (<50%) | CNC(=O)c1cc(O)cc2c1[C@]1(C)CC[C@H]3C(C)(C)CCC[C@]3(C)[C@H]1CS2(=O)=O [compound 66, (1R,10R,11S,16S)-5-hydroxy-N,1,11,15,15-pentamethyl-8,8-dioxo-8λ^6-thiatetracyclo[8.8.0.0^2,7.0^11,16]octadeca-2,4,6-triene-3-carboxamide] |
| + (<50%) | CNC(=O)c1cc2c(cc1O)S(=O)(=O)C[C@@H]1[C@@]3(C)CCCC(C)(C)[C@@H]3CC[C@@]21C [compound 73, (1R,10R,11S,16S)-5-hydroxy-N,1,11,15,15-pentamethyl-8,8-dioxo-8λ^6-thiatetracyclo[8.8.0.0^2,7.0^11,16]octadeca-2,4,6-triene-4-carboxamide] |
| + (<50%) | CNC(=O)c1cc(O)cc2c1[C@]1(C)CC[C@H]3C(C)(C)CCC[C@]3(C)[C@H]1CS2 [compound 76, (1R,10R,11S,16S)-5-hydroxy-N,1,11,15,15-pentamethyl-8-thiatetracyclo-[8.8.0.0^2,7.0^11,16]octadeca-2,4,6-triene-3-carboxamide] |
| + (<50%) | CC1(C)CCC[C@]2(C)[C@H]3CS(=O)(=O)c4cc(O)cc(C#N)c4[C@]3(C)CC[C@@H]12 [compound 79, (1R,10R,11S,16S)-5-hydroxy-1,11,15,15-tetramethyl-8,8-dioxo-8λ^6-thiatetracyclo[8.8.0.0^2,7.0^11,16]octadeca-2,4,6-triene-3-carbonitrile] |
| + (<50%) | COc1cc(C(=O)O)cc2c1[C@]1(C)CC[C@H]3C(C)(C)CCC[C@]3(C)[C@H]1CS2(=O)=O [compound 80, (1R,10R,11S,16S)-3-methoxy-1,11,15,15-tetramethyl-8,8-dioxo-8λ^6-thiatetracyclo[8.8.0.0^2,7.0^11,16]octadeca-2,4,6-triene-5-carboxylic acid] |
| + (<50%) | COC(=O)c1cc(C(=O)O)cc2c1[C@]1(C)CC[C@H]3C(C)(C)CCC[C@]3(C)[C@H]1CS2(=O)=O [compound 84, (1R,10R,11S,16S)-3-(methoxycarbonyl)-1,11,15,15-tetramethyl-8,8-dioxo-8λ^6-thiatetracyclo[8.8.0.0^2,7.0^11,16]octadeca-2,4,6-triene-5-carboxylic acid] |
| + (<50%) | CC1(C)CCC[C@]2(C)[C@H]3CS(=O)(=O)c4cc(C(=O)O)cc(C(=O)O)c4[C@]3(C)CC[C@@H]12 [compound 85, (1R,10R,11S,16S)-1,11,15,15-tetramethyl-8,8-dioxo-8λ^6-thiatetracyclo[8.8.0.0^2,7.0^11,16]octadeca-2,4,6-triene-3,5-dicarboxylic acid] |
